For series [1] the following is noted: cited from earlier work; for safety of human consumption: by mouth up to 1000 mg per dose per day; for side effects of oral intake: orally, up to or more than 1000 mg per day over many years.
The target of series [2] is T1, alcohol dehydrogenase (ADH) (Saccharomyces cerevisiae, UniProt P00330).
T1 construct: purchased Sigma
T1 sequence (P00330 1-348): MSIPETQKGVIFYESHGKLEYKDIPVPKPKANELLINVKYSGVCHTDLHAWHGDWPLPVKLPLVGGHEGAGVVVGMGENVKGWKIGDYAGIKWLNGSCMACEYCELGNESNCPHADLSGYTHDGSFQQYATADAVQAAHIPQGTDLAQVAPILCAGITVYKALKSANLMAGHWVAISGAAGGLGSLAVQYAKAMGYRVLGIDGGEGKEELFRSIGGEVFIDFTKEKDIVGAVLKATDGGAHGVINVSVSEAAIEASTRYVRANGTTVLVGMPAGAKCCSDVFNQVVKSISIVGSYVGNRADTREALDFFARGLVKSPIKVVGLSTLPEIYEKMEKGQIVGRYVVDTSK
Kind of series: Effect of NADP concentration on alcohol dehydrogenase activity, OD340 read every minute. Type of series: biochemical. The settings on record: for OD of samples after subtracting OD at time zero vs. Time / OD of samples vs. Time: ADH 84 U/mL, 2.5% ethanol; for OD of samples vs. Time: OD340. The protocol: 100% ethanol (EtOH) was purchased from VWR. Buffer used was Triz Base at 0.2 M, pH 8.2.
The concentration of ethanol is 2.5% (v/v). And 0.28 mg/mL ADH, equivalent to 84 U/mL.
Multiple samples were prepared as per Table 1. The assay was performed as follows: • 1. […] Place a quartz cuvette into the spectrophotometer. • 3. At time minus 10 seconds, add 0.1 mL enzyme (2 mg/mL ADH or buffer blank) to the cuvette. • 4. Mix by pipetting. Read OD340 at time zero. • 5. Read OD340 every minute for 5 minutes. 6. Repeat for remaining samples.

`NC(=O)c1ccc[n+]([C@@H]2O[C@H](COP(=O)([O-])O)[C@@H](O)[C@H]2O)c1` [NMN, Nicotinamide Mononucleotide]: in series [1], the “safety of human consumption” value was “no ill effects” and the “side effects of oral intake” value is listed as “without any detectable undesirable side effects”.
On to `NC(=O)c1ccc[n+]([C@@H]2O[C@H](CO)[C@@H](O)[C@H]2O)c1` [NR, Nicotinamide Riboside], for which, in series [1], the “safety of human consumption” value is listed as “no ill effects” and the “side effects of oral intake” value is “without any detectable undesirable side effects”.
Turning to “Nicotinamide Adenine Dinucleotide Phosphate [NADP]”, the “OD of samples after subtracting OD at time zero vs. Time” value in series [2] (0 min, NADP 8.5 mM final) is listed as 0; in series [2] (0 min, NADP 28 mM final), 0; in series [2] (1 min, NADP 8.5 mM final) it was 0.059; in series [2] (2 min, NADP 8.5 mM final) it was 0.087; in series [2] (2 min, NADP 28 mM final) it was 0.169; in series [2] (3 min, NADP 8.5 mM final), 0.098. The “OD of samples after subtracting OD at time zero vs. Time” value is 0.102 in series [2] (4 min, NADP 8.5 mM final) and 0.223 in series [2] (5 min, NADP 28 mM final). The “OD of samples vs. Time” value in series [2] (0 min, NADP 8.5 mM final) is 0.003; in series [2] (0 min, NADP 28 mM final, listed as NADP 3x), 0.749; in series [2] (0 min, NADP 28 mM final, listed as NADP 3×), “around 0.8”; in series [2] (1 min, NADP 8.5 mM final), 0.062; in series [2] (1 min, NADP 28 mM final) it was 0.860; in series [2] (2 min, NADP 8.5 mM final), 0.090. Also, the “OD of samples vs. Time” value in series [2] (2 min, NADP 28 mM final) is recorded as 0.918; in series [2] (3 min, NADP 28 mM final), 0.948; in series [2] (4 min, NADP 28 mM final), 0.963; in series [2] (5 min, NADP 28 mM final) it was 0.972. In addition, in series [2] (28 mM vs 8.4 mM NADP, same conc of ADH), the “velocity of ethanol removal by ADH in the higher NADP mixture compared to the lower NADP mixture” value is listed as “about 2 ×”. Moreover, the “OD at higher NADP concentration compared with the lower NADP concentration” value in series [2] (starting at 1 minute, higher vs lower NADP concentration) was “higher ODs at every time point”.

The values above are taken from patent publication US20240123039A1, “DETOXIFICATION PREPARATIONS WITH REINFORCED BOOSTERS TO TREAT ALCOHOL INTOXICATION” (priority 2022, published 2024).
